Key:
C-CBL (46-435) = biological target: T1, C-CBL (46-435) (Homo sapiens, UniProt P22681); experiment: Surface Plasmon Resonance (SPR) assay, binding affinity and kinetics, C-CBL; settings: SPR at 10° C., biotinylated C-CBL (46-435) on streptavidin chip; geometric mean; read-out: C-CBL SPR Kd (nM) GMean
T1 construct: N-terminal biotinylated WT CBL-B (36-427) and C-CBL (46-435) were captured on a streptavidin (SA) coated sensor chip
T1 sequence (P22681 46-435): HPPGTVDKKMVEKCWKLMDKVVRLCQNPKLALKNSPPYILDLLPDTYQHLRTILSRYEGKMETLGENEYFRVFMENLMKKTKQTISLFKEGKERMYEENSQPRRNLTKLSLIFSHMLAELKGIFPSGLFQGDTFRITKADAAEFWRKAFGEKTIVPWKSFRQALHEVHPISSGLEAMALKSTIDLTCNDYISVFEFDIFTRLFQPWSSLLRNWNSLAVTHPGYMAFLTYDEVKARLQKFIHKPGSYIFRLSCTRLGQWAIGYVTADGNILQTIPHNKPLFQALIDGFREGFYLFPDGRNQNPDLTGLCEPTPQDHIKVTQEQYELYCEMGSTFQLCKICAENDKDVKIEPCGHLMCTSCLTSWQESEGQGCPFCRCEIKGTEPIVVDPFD
How it was run: (§1)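 Biotinylated WT CBL-B (36-427) or C-CBL (46-435) captured on streptavidin chip (~5000–6000 RU); binding at 10° C in HEPES buffer pH 7.2 with 2% DMSO. Multi-cycle: 2-fold, 10-point series from 10 or 100 μM, 90 s association. Single-cycle: 3-fold, 6-point, 0.001–1 μM, 120 s association, >5400 s dissociation.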

CBL-B (residues 36-427) = biological target: T2, CBL-B (residues 36-427) (Homo sapiens, UniProt Q13191); experiment: Ligand Displacement Assay (LDA), HTRF competitive binding against BODIPY-labeled fluorescent tracer, CBL-B; settings: geometric mean of the number of tests, read-out: CBL-B Ki (nM) GMean
T2 construct: Purified CBL-B (residues 36-427) and C-CBL (residues 46-435) proteins from baculovirus-infected insect cells; made in house; host or cells: baculovirus-infected insect cells
How it was run: (§2)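 First, the insect-cell-expressed protein is biotinylated at its amino-terminal AviTag with BirA and coupled to SA-Tb. Next, the tracer KD is determined for each protein. Finally, compounds are titrated three-fold in duplicate […], at 2% DMSO, and Ki is reported as a geometric mean.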

WT CBL-B (36-427) = biological target: T3, WT CBL-B (36-427) (Homo sapiens, UniProt Q13191); experiment: Surface Plasmon Resonance (SPR) assay, binding affinity and kinetics, CBL-B; settings: SPR at 10° C., biotinylated WT CBL-B (36-427) on streptavidin chip; geometric mean; read-out: CBL-B SPR Kd (nM) GMean
T3 construct: N-terminal biotinylated WT CBL-B (36-427) and C-CBL (46-435) were captured on a streptavidin (SA) coated sensor chip
How it was run: as §1

C-CBL (residues 46-435) = biological target: T4, C-CBL (residues 46-435) (Homo sapiens, UniProt P22681); experiment: Ligand Displacement Assay (LDA), HTRF competitive binding against BODIPY-labeled fluorescent tracer, C-CBL; settings: geometric mean of the number of tests, read-out: C-CBL Ki (nM) GMean
T4 construct: Purified CBL-B (residues 36-427) and C-CBL (residues 46-435) proteins from baculovirus-infected insect cells; made in house; host or cells: baculovirus-infected insect cells
T4 sequence (P22681 46-435): T1 sequence (P22681 46-435)
How it was run: as §2

Compound	Kd (C-CBL (46-435))	Ki (CBL-B (residues 36-427))	Kd (WT CBL-B (36-427))	Ki (C-CBL (residues 46-435))
CN(C)Cc1nc(C(F)(F)F)cc2c(-c3cccc(C4(Cc5nncn5C)COC4)c3)n[nH]c12 [Example C51, N,N-dimethyl-1-[3-(3-{3-[(4-methyl-4H-1,2,4-triazol-3-yl)methyl]oxetan-3-yl}phenyl)-5-(trifluoromethyl)-1H-pyrazolo[3,4-c]pyridin-7-yl]methanamine]	182 nM	22 nM	17.8 nM	115 nM
CNCc1nc(C(F)(F)F)cc2c(-c3cccc(C4(Cc5nncn5C)COC4)c3)n[nH]c12 [Example C52, N-methyl-1-[3-(3-{3-[(4-methyl-4H-1,2,4-triazol-3-yl)methyl]oxetan-3-yl}phenyl)-5-(trifluoromethyl)-1H-pyrazolo[3,4-c]pyridin-7-yl]methanamine]	124 nM	32.9 nM	9.3 nM	134 nM
CC(C)NCc1nc(C(F)(F)F)cc2c(-c3cccc(C4(Cc5nncn5C)COC4)c3)n[nH]c12 [Example C53, N-{[3-(3-{3-[(4-methyl-4H-1,2,4-triazol-3-yl)methyl]oxetan-3-yl}phenyl)-5-(trifluoromethyl)-1H-pyrazolo[3,4-c]pyridin-7-yl]methyl}propan-2-amine]	747 nM	66.6 nM	61.8 nM	312 nM
Cn1cnnc1CC1(c2cccc(-c3n[nH]c4c(CNC5CCCC5)nc(C(F)(F)F)cc34)c2)COC1 [Example C54, N-{[3-(3-{3-[(4-methyl-4H-1,2,4-triazol-3-yl)methyl]oxetan-3-yl}phenyl)-5-(trifluoromethyl)-1H-pyrazolo[3,4-c]pyridin-7-yl]methyl}cyclopentanamine]	93.2 nM	10.7 nM	4.5 nM	49.4 nM
Cn1cnnc1CC1(c2cccc(-c3n[nH]c4c(CN5CCNC(=O)C5)nc(C(F)(F)F)cc34)c2)COC1 [Example C55, 4-{[3-(3-{3-[(4-methyl-4H-1,2,4-triazol-3-yl)methyl]oxetan-3-yl}phenyl)-5-(trifluoromethyl)-1H-pyrazolo[3,4-c]pyridin-7-yl]methyl}piperazin-2-one]	27.6 nM	21.2 nM	3 nM	65.3 nM
CCNCc1nc(C(F)(F)F)cc2c(-c3cccc(C4(Cc5nncn5C)COC4)c3)n[nH]c12 [Example C56, N-{[3-(3-{3-[(4-methyl-4H-1,2,4-triazol-3-yl)methyl]oxetan-3-yl}phenyl)-5-(trifluoromethyl)-1H-pyrazolo[3,4-c]pyridin-7-yl]methyl}ethanamine]	150 nM	43.6 nM	11 nM	201 nM
Cn1cnnc1CC1(c2cccc(-c3n[nH]c4c(CNC5CCC5)nc(C(F)(F)F)cc34)c2)COC1 [Example C57, N-{[3-(3-{3-[(4-methyl-4H-1,2,4-triazol-3-yl)methyl]oxetan-3-yl}phenyl)-5-(trifluoromethyl)-1H-pyrazolo[3,4-c]pyridin-7-yl]methyl}cyclobutanamine]	116 nM	18.9 nM	3.3 nM	96.3 nM
C[C@H]1CN(Cc2nc(C(F)(F)F)cc3c(-c4cccc(C5(Cc6nncn6C)COC5)c4)n[nH]c23)CCO1 [Example C58, 7-{[(2S)-2-methylmorpholin-4-yl]methyl}-3-(3-{3-[(4-methyl-4H-1,2,4-triazol-3-yl)methyl]oxetan-3-yl}phenyl)-5-(trifluoromethyl)-1H-pyrazolo[3,4-c]pyridine]	54.1 nM	14.8 nM	5.8 nM	82.4 nM
Cn1cnnc1CC1(c2cccc(-c3n[nH]c4c(CN[C@@H]5CCOC5)nc(C(F)(F)F)cc34)c2)COC1 [Example C59]	230 nM	45.2 nM	16.8 nM	171 nM
Cn1cnnc1CC1(c2cccc(-c3n[nH]c4c(CN[C@@H]5CCC(F)(F)C5)nc(C(F)(F)F)cc34)c2)COC1 [Example C60, (1R)-3,3-difluoro-N-{[3-(3-{3-[(4-methyl-4H-1,2,4-triazol-3-yl)methyl]oxetan-3-yl}phenyl)-5-(trifluoromethyl)-1H-pyrazolo[3,4-c]pyridin-7-yl]methyl}cyclopentan-1-amine]	41.7 nM	10.7 nM	5.1 nM	57.5 nM
Cn1cnnc1CC1(c2cccc(-c3n[nH]c4c(CN5CCC5)nc(C(F)(F)F)cc34)c2)COC1 [Example C61, 7-[(azetidin-1-yl)methyl]-3-(3-{3-[(4-methyl-4H-1,2,4-triazol-3-yl)methyl]oxetan-3-yl}phenyl)-5-(trifluoromethyl)-1H-pyrazolo[3,4-c]pyridine]	99.8 nM	53 nM	12.8 nM	232 nM
Cn1cnnc1CC1(c2cccc(-c3n[nH]c4c(CN5CCCC5)nc(C(F)(F)F)cc34)c2)COC1 [Example C62, 3-(3-{3-[(4-methyl-4H-1,2,4-triazol-3-yl)methyl]oxetan-3-yl}phenyl)-7-[(pyrrolidin-1-yl)methyl]-5-(trifluoromethyl)-1H-pyrazolo[3,4-c]pyridine]	111 nM	34.3 nM	8.6 nM	162 nM
Cn1cnnc1CC1(c2cccc(-c3n[nH]c4c(CN5CCOCC5)nc(C(F)(F)F)cc34)c2)COC1 [Example C63, 3-(3-{3-[(4-methyl-4H-1,2,4-triazol-3-yl)methyl]oxetan-3-yl}phenyl)-7-[(morpholin-4-yl)methyl]-5-(trifluoromethyl)-1H-pyrazolo[3,4-c]pyridine]	91.8 nM	27 nM	8 nM	120 nM
Cn1cnnc1CC1(c2cccc(-c3n[nH]c4c(CN5CCNCC5)nc(C(F)(F)F)cc34)c2)COC1 [Example C64, 3-(3-{3-[(4-methyl-4H-1,2,4-triazol-3-yl)methyl]oxetan-3-yl}phenyl)-7-[(piperazin-1-yl)methyl]-5-(trifluoromethyl)-1H-pyrazolo[3,4-c]pyridine]	65.2 nM	31.2 nM	3 nM	117 nM
Cn1cnnc1CC1(c2cccc(-c3n[nH]c4c(CN5CC(F)C5)nc(C(F)(F)F)cc34)c2)COC1 [Example C65, 7-[(3-fluoroazetidin-1-yl)methyl]-3-(3-{3-[(4-methyl-4H-1,2,4-triazol-3-yl)methyl]oxetan-3-yl}phenyl)-5-(trifluoromethyl)-1H-pyrazolo[3,4-c]pyridine]	127 nM	21.8 nM	4.9 nM	126 nM
Cn1cnnc1CC1(c2cccc(-c3n[nH]c4c(CN5C[C@@H](F)[C@H](F)C5)nc(C(F)(F)F)cc34)c2)COC1 [Example C66, 7-{[(3R,4R)-3,4-difluoropyrrolidin-1-yl]methyl}-3-(3-{3-[(4-methyl-4H-1,2,4-triazol-3-yl)methyl]oxetan-3-yl}phenyl)-5-(trifluoromethyl)-1H-pyrazolo[3,4-c]pyridine]	97 nM	20 nM	9.6 nM	112 nM
Cn1cnnc1CC1(c2cccc(-c3n[nH]c4c(CN5C[C@@H](F)[C@@H](F)C5)nc(C(F)(F)F)cc34)c2)COC1 [Example C67, 7-{[(3R,4S)-3,4-difluoropyrrolidin-1-yl]methyl}-3-(3-{3-[(4-methyl-4H-1,2,4-triazol-3-yl)methyl]oxetan-3-yl}phenyl)-5-(trifluoromethyl)-1H-pyrazolo[3,4-c]pyridine]	51 nM	12.6 nM	4.4 nM	72.1 nM
Cn1cnnc1CC1(c2cccc(-c3n[nH]c4c(CN5C[C@H](F)[C@@H](F)C5)nc(C(F)(F)F)cc34)c2)COC1 [Example C68, 7-{[(3S,4S)-3,4-difluoropyrrolidin-1-yl]methyl}-3-(3-{3-[(4-methyl-4H-1,2,4-triazol-3-yl)methyl]oxetan-3-yl}phenyl)-5-(trifluoromethyl)-1H-pyrazolo[3,4-c]pyridine]	122 nM	24.8 nM	10.7 nM	124 nM
Cn1cnnc1CC1(c2cccc(-c3n[nH]c4c(CN5CC(F)(F)C5)nc(C(F)(F)F)cc34)c2)COC1 [Example C69, 7-[(3,3-difluoroazetidin-1-yl)methyl]-3-(3-{3-[(4-methyl-4H-1,2,4-triazol-3-yl)methyl]oxetan-3-yl}phenyl)-5-(trifluoromethyl)-1H-pyrazolo[3,4-c]pyridine]	208 nM	34.5 nM	30.2 nM	185 nM
